Experimental findings from ChEMBL document CHEMBL1275563, “Genetic characterization of Vga ABC proteins conferring reduced susceptibility to pleuromutilins in Staphylococcus aureus” (2008) are described below.

In brackets after ≈: the same amount, converted by molar mass. Numbered stars: 1 amine (or outer) side, 2 acyl side, 3 side chain; on linkers, the order of the positions; unused ones are H or OH. Bridge positions count the residues as written; N and C are the ends. Square brackets hold non-standard residues; d marks the D form. Peptide text beside a SMILES is read from it. * marks the point of attachment. X1 = O=C1C[C@@H](C(=O)[*:2])N([*:1])C[C@H]1CS[C@@H]1CN2CCC1CC2; NMePhe(4-NMe2) = CN[C@@H](Cc1ccc(N(C)C)cc1)C(=O)O; Picolinoyl(3-OH) = O=C(c1ncccc1O)*; Phg = N[C@H](C(=O)O)c1ccccc1; dAbu = CC[C@@H](N)C(=O)O Some results are limits rather than exact numbers.

In assay [1] the test system is Staphylococcus aureus. Briefly: Antimicrobial activity against Staphylococcus aureus RN1024. Format: functional.
The subject of assay [2] is Staphylococcus aureus. Briefly: Antimicrobial activity against Staphylococcus aureus RN4220 harboring vgaAv positive plasmid CU1.
Assay [3] has as its system Staphylococcus aureus. Briefly: Antimicrobial activity against Staphylococcus aureus RN4220. Format: functional.
The test system of assay [4] is Staphylococcus aureus. Briefly: Antimicrobial activity against Staphylococcus aureus RN4220 harboring plasmid VGA.
The test system of assay [5] is Staphylococcus aureus. Briefly: microbe, parasite or virus in culture. To be noted: ATCC 29213.
Description: Antimicrobial activity against Staphylococcus aureus ATCC 29213
Assay [6] deals with Staphylococcus aureus. Briefly: Antimicrobial activity against Staphylococcus aureus RN1024-tms. In kind it is functional.
For assay [7], the system named is Staphylococcus aureus. Briefly: Antimicrobial activity against Staphylococcus aureus RN4220 harboring plasmid CU1.
Assay [8] relates to Staphylococcus aureus. Briefly: Antimicrobial activity against Staphylococcus aureus IV20204009 harboring vgaAv positive Tn5406 transposon. In kind it is functional.
Assay [9] deals with Staphylococcus aureus. Briefly: Antimicrobial activity against Staphylococcus aureus IV20205004 harboring vgaAv positive Tn5406 transposon. In kind it is functional.
Assay [10] concerns Staphylococcus aureus. Briefly: Antimicrobial activity against Staphylococcus aureus IV20217008 harboring vgaAv positive Tn5406 transposon. In kind it is functional.
Assay [11] has as its system Staphylococcus aureus. Briefly: Antimicrobial activity against Staphylococcus aureus IV20222009 harboring vgaAv positive Tn5406 transposon. Format: functional.
Assay [12] has as its system Staphylococcus aureus. Briefly: Antimicrobial activity against Staphylococcus aureus IV20217033 harboring vgaA positive plasmid VGA. In kind it is functional.
Assay [13] deals with Staphylococcus aureus. Briefly: Antimicrobial activity against Staphylococcus aureus IHMA127277 harboring vgaAv positive Tn5406 transposon. Format: functional.

As to `CC[C@H]1NC(=O)[C@@H](NC(=O)c2ncccc2O)[C@@H](C)OC(=O)[C@H](c2ccccc2)NC(=O)[C@@H]2CC(=O)[C@H](CS[C@@H]3CN4CCC3CC4)CN2C(=O)[C@H](Cc2ccc(N(C)C)cc2)N(C)C(=O)[C@@H]2CCCN2C1=O` [QUINUPRISTIN] ({Picolinoyl(3-OH)}-T[dAbu]P[NMePhe(4-NMe2)][X1][Phg]; ester 1-C), the MIC in the assay with Staphylococcus aureus [1] came to 4 µg/mL (≈ 3.91 µM); against Staphylococcus aureus [2] it was 1 µg/mL (≈ 0.978 µM); in the assay with Staphylococcus aureus [3] it was 4 µg/mL (≈ 3.91 µM); against Staphylococcus aureus [4] it was 4 µg/mL (≈ 3.91 µM); against Staphylococcus aureus [5], 4 µg/mL (≈ 3.91 µM); in the assay with Staphylococcus aureus [6] it was 4 µg/mL (≈ 3.91 µM). Moreover, the MIC in the assay on Staphylococcus aureus [7] is 4 µg/mL (≈ 3.91 µM).

`CN(C)[C@@H]1C(O)=C(C(N)=O)C(=O)[C@@]2(O)C(O)=C3C(=O)c4c(O)cccc4[C@@](C)(O)[C@H]3C[C@@H]12` [TETRACYCLINE]: the MIC in the assay on Staphylococcus aureus [1] came to 64 µg/mL (≈ 144 µM); with Staphylococcus aureus [2] it was 0.125 µg/mL (≈ 0.281 µM); against Staphylococcus aureus [3], 0.25 µg/mL (≈ 0.563 µM); in the assay on Staphylococcus aureus [5] it was 0.5 µg/mL (≈ 1.13 µM); in the assay on Staphylococcus aureus [6], 64 µg/mL (≈ 144 µM); against Staphylococcus aureus [7] it was 0.25 µg/mL (≈ 0.563 µM).

`CC(=O)NC[C@H]1CN(c2ccc(N3CCOCC3)c(F)c2)C(=O)O1` [LINEZOLID] showed an MIC with Staphylococcus aureus [2] of 1 µg/mL (≈ 2.96 µM).

Take `CCC[C@@H]1C[C@@H](C(=O)N[C@@H]([C@H]2O[C@H](SC)[C@H](O)[C@@H](O)[C@H]2O)[C@@H](C)O)N(C)C1` [LINCOMYCIN]: the MIC in the assay on Staphylococcus aureus [1] is 8 µg/mL (≈ 19.7 µM); with Staphylococcus aureus [2] it was 32 µg/mL (≈ 78.7 µM); against Staphylococcus aureus [3], 0.5 µg/mL (≈ 1.23 µM); in the assay with Staphylococcus aureus [4] it was 32 µg/mL (≈ 78.7 µM); in the assay with Staphylococcus aureus [5], 2 µg/mL (≈ 4.92 µM); in the assay on Staphylococcus aureus [6], 1 µg/mL (≈ 2.46 µM). Moreover, the MIC against Staphylococcus aureus [7] amounted to 0.5 µg/mL (≈ 1.23 µM).

With `CCN(CC)CCS(=O)(=O)[C@@H]1CCN2C(=O)c3coc(n3)CC(=O)C[C@H](O)/C=C(C)/C=C/CNC(=O)/C=C/[C@@H](C)[C@@H](C(C)C)OC(=O)[C@@H]12` [DALFOPRISTIN], the MIC in the assay with Staphylococcus aureus [1] amounted to 64 µg/mL (≈ 92.6 µM); in the assay with Staphylococcus aureus [2] it was 64 µg/mL (≈ 92.6 µM); in the assay on Staphylococcus aureus [3], 4 µg/mL (≈ 5.79 µM); in the assay on Staphylococcus aureus [4], 32 µg/mL (≈ 46.3 µM); with Staphylococcus aureus [5], 8 µg/mL (≈ 11.6 µM); in the assay with Staphylococcus aureus [6], 8 µg/mL (≈ 11.6 µM). In the assay on Staphylococcus aureus [7], this compound showed an MIC of 4 µg/mL (≈ 5.79 µM).

Consider `CO[C@H]1/C=C/O[C@@]2(C)Oc3c(C)c(O)c4c(O)c(c(/C=N/N5CCN(C)CC5)c(O)c4c3C2=O)NC(=O)/C(C)=C\C=C\[C@H](C)[C@H](O)[C@@H](C)[C@@H](O)[C@@H](C)[C@H](OC(C)=O)[C@@H]1C` [RIFAMPIN], for which the MIC in the assay on Staphylococcus aureus [1] is over 64 µg/mL; in the assay on Staphylococcus aureus [3], at most 0.06 µg/mL; in the assay with Staphylococcus aureus [5], under 0.06 µg/mL; against Staphylococcus aureus [6], over 64 µg/mL.

As to GENTAMICIN, the MIC was over 64 µg/mL in the assay on Staphylococcus aureus [1], 1 µg/mL against Staphylococcus aureus [3] and over 64 µg/mL with Staphylococcus aureus [6].

As to `C=C[C@]1(C)C[C@@H](OC(=O)CSCCN(CC)CC)[C@]2(C)[C@H](C)CC[C@]3(CCC(=O)[C@H]32)[C@@H](C)[C@@H]1O` [TIAMULIN], the MIC is 32 µg/mL (≈ 64.8 µM) with Staphylococcus aureus [8]; 16 µg/mL (≈ 32.4 µM) against Staphylococcus aureus [9]; 16 µg/mL (≈ 32.4 µM) with Staphylococcus aureus [1]; over 64 µg/mL in the assay on Staphylococcus aureus [2]; 32 µg/mL (≈ 64.8 µM) against Staphylococcus aureus [10]; 0.5 µg/mL (≈ 1.01 µM) with Staphylococcus aureus [3]. For the same compound, the MIC against Staphylococcus aureus [4] is over 64 µg/mL; against Staphylococcus aureus [5], 1 µg/mL (≈ 2.03 µM); against Staphylococcus aureus [6], 0.5 µg/mL (≈ 1.01 µM); in the assay on Staphylococcus aureus [11], 16 µg/mL (≈ 32.4 µM); in the assay on Staphylococcus aureus [7] it was 0.25 µg/mL (≈ 0.506 µM); in the assay on Staphylococcus aureus [12], over 64 µg/mL.

Take `O=C(N[C@H](CO)[C@H](O)c1ccc([N+](=O)[O-])cc1)C(Cl)Cl` [CHLORAMPHENICOL]: the MIC in the assay on Staphylococcus aureus [1] is 8 µg/mL (≈ 24.8 µM); in the assay on Staphylococcus aureus [2], over 64 µg/mL; against Staphylococcus aureus [3], 8 µg/mL (≈ 24.8 µM); in the assay with Staphylococcus aureus [4], 8 µg/mL (≈ 24.8 µM); with Staphylococcus aureus [5] it was 16 µg/mL (≈ 49.5 µM); in the assay with Staphylococcus aureus [6] it was 8 µg/mL (≈ 24.8 µM). Besides, in the assay on Staphylococcus aureus [7], the MIC was over 64 µg/mL.

As to `C[C@H]1COc2c(N3CCN(C)CC3)c(F)cc3c(=O)c(C(=O)O)cn1c23.C[C@H]1COc2c(N3CCN(C)CC3)c(F)cc3c(=O)c(C(=O)O)cn1c23.O` [LEVOFLOXACIN], the MIC against Staphylococcus aureus [1] amounted to 16 µg/mL; in the assay on Staphylococcus aureus [2], 0.125 µg/mL; against Staphylococcus aureus [3] it was 0.125 µg/mL; in the assay with Staphylococcus aureus [4], 0.125 µg/mL; against Staphylococcus aureus [5] it was 0.125 µg/mL; in the assay with Staphylococcus aureus [6], 32 µg/mL. In the assay with Staphylococcus aureus [7], the MIC is 0.125 µg/mL.

With `C/C(=C\C(=O)OCCCCCCCCC(=O)O)C[C@@H]1OC[C@H](C[C@@H]2O[C@H]2[C@@H](C)[C@H](C)O)[C@@H](O)[C@H]1O` [MUPIROCIN], the MIC in the assay on Staphylococcus aureus [1] is 0.25 µg/mL (≈ 0.499 µM); in the assay with Staphylococcus aureus [3] it was at most 0.06 µg/mL; against Staphylococcus aureus [5], 0.25 µg/mL (≈ 0.499 µM); in the assay on Staphylococcus aureus [6], 0.25 µg/mL (≈ 0.499 µM).

`COc1cc(Cc2cnc(N)nc2N)cc(OC)c1OC` [TRIMETHOPRIM]: the MIC with Staphylococcus aureus [1], in the assay on Staphylococcus aureus [2], against Staphylococcus aureus [3], with Staphylococcus aureus [4], against Staphylococcus aureus [5] and in the assay with Staphylococcus aureus [6] was 2 µg/mL (≈ 6.89 µM) in each case. In addition, the MIC in the assay on Staphylococcus aureus [7] worked out at 2 µg/mL (≈ 6.89 µM).

Consider `CC[C@H]1OC(=O)[C@H](C)[C@@H](O[C@H]2C[C@@](C)(OC)[C@@H](O)[C@H](C)O2)[C@H](C)[C@@H](O[C@@H]2O[C@H](C)C[C@H](N(C)C)[C@H]2O)[C@](C)(O)C[C@@H](C)C(=O)[C@H](C)[C@@H](O)[C@]1(C)O` [ERYTHROMYCIN], for which the MIC was 0.25 µg/mL (≈ 0.341 µM) with Staphylococcus aureus [1]; 0.125 µg/mL (≈ 0.17 µM) against Staphylococcus aureus [2]; 0.25 µg/mL (≈ 0.341 µM) with Staphylococcus aureus [3]; 0.25 µg/mL (≈ 0.341 µM) with Staphylococcus aureus [4]; 0.5 µg/mL (≈ 0.681 µM) in the assay with Staphylococcus aureus [5]; 0.25 µg/mL (≈ 0.341 µM) against Staphylococcus aureus [6]. This compound displayed an MIC against Staphylococcus aureus [7] of 0.25 µg/mL (≈ 0.341 µM).

`CCC[C@@H]1C[C@@H](C(=O)N[C@@H]([C@H]2O[C@H](SC)[C@H](O)[C@@H](O)[C@H]2O)[C@H](C)Cl)N(C)C1` [CLINDAMYCIN]: the MIC against Staphylococcus aureus [1] was determined as 0.25 µg/mL (≈ 0.588 µM); against Staphylococcus aureus [2], 2 µg/mL (≈ 4.71 µM); in the assay with Staphylococcus aureus [3], 0.06 µg/mL (≈ 0.141 µM); in the assay on Staphylococcus aureus [4] it was 4 µg/mL (≈ 9.41 µM); with Staphylococcus aureus [5] it was 0.125 µg/mL (≈ 0.294 µM); against Staphylococcus aureus [6], 0.06 µg/mL (≈ 0.141 µM). Besides, in the assay on Staphylococcus aureus [7], the MIC was found to be 0.06 µg/mL (≈ 0.141 µM).

Regarding `C=C[C@]1(C)C[C@@H](OC(=O)CS[C@@H]2C[C@H]3CC[C@@H](C2)N3C)[C@]2(C)[C@H](C)CC[C@]3(CCC(=O)[C@H]32)[C@@H](C)[C@@H]1O` [RETAPAMULIN], the MIC is 2 µg/mL (≈ 3.86 µM) against Staphylococcus aureus [8]; 2 µg/mL (≈ 3.86 µM) against Staphylococcus aureus [9]; 2 µg/mL (≈ 3.86 µM) in the assay on Staphylococcus aureus [1]; 32 µg/mL (≈ 61.8 µM) against Staphylococcus aureus [2]; 4 µg/mL (≈ 7.73 µM) in the assay on Staphylococcus aureus [10]; at most 0.06 µg/mL against Staphylococcus aureus [3]. The MIC against Staphylococcus aureus [4] is 32 µg/mL (≈ 61.8 µM); in the assay on Staphylococcus aureus [5], at most 0.06 µg/mL; against Staphylococcus aureus [6], at most 0.06 µg/mL; against Staphylococcus aureus [11] it was 4 µg/mL (≈ 7.73 µM); against Staphylococcus aureus [13], 2 µg/mL (≈ 3.86 µM); in the assay with Staphylococcus aureus [12], 64 µg/mL (≈ 124 µM).
